# Legend:
# Type in all cases: in vivo
# [1] = system: transgenic maize plants (ALT-1, ALT-2 and ALT-3); assay: Halosulfuron-methyl tolerance of maize plants; conditions: summary of Table 4
# Procedure: Zm cytoplasmic ALT-1-02 maize plants, Zm chloroplastic ALT-1-02 maize plants, Zm cytoplasmic ALT-2-02 maize plants, Zm chloroplastic ALT-2-02 maize plants, Zm cytoplasmic ALT-3-02 maize plants, Zm chloroplastic ALT-3-02 maize plants and wild-type maize plants were respectively taken and sprayed with halosulfuron-methyl (36 g ai/ha, 4-fold field concentration) and a blank solvent (water). The damage degree caused by the herbicide was measured for each plant according to the plant growth status 3 days after spraying (3 DAT), 7 days after spraying (7 DAT), 14 days after spraying (14 DAT) and 21 days after spraying (21 DAT), respectively: considering a growth status equivalent to that of the untreated plants as having a damage degree of 0%; considering conditions of leaves being partially chlorotic and yellow but substantially not affecting the plant normal growth as having a damage degree of 50%; and considering the whole plant being purple and dying as having a damage degree of 100%. […]
# [2] = system: Zm chloroplastic ALT-2-02 maize plants; assay: Halosulfuron-methyl tolerance of maize plants (damage degree); conditions: 36 g ai/ha (4x Hal.); for Average damage % 3 DAT: 3 days after spraying; for Average damage % 7 DAT: 7 days after spraying; for Average damage % 14 DAT: 14 days after spraying; for Average damage % 21 DAT: 21 days after spraying
# Source text: (§1) The herbicide tolerance effects of Zm cytoplasmic ALT-1-02 maize plants, Zm chloroplastic ALT-1-02 maize plants, Zm cytoplasmic ALT-2-02 maize plants, Zm chloroplastic ALT-2-02 maize plants, Zm cytoplasmic ALT-3-02 maize plants, Zm chloroplastic ALT-3-02 maize plants and wild-type maize plants on halosulfuron-methyl were detected (at V3-V4 stage), respectively.
# (§2) Zm cytoplasmic ALT-1-02 maize plants, Zm chloroplastic ALT-1-02 maize plants, Zm cytoplasmic ALT-2-02 maize plants, Zm chloroplastic ALT-2-02 maize plants, Zm cytoplasmic ALT-3-02 maize plants, Zm chloroplastic ALT-3-02 maize plants and wild-type maize plants were respectively taken and sprayed with halosulfuron-methyl (36 g ai/ha, 4-fold field concentration) and a blank solvent (water). The damage degree caused by the herbicide was measured for each plant according to the plant growth status 3 days after spraying (3 DAT), 7 days after spraying (7 DAT), 14 days after spraying (14 DAT) and 21 days after spraying (21 DAT), respectively: considering a growth status equivalent to that of the untreated plants as having a damage degree of 0%; considering conditions of leaves being partially chlorotic and yellow but substantially not affecting the plant normal growth as having a damage degree of 50%; and considering the whole plant being purple and dying as having a damage degree of 100%. There were 2 strains in Zm cytoplasmic ALT-1-02 maize plants in total (S13 and S14), 2 strains in Zm chloroplastic ALT-1-02 maize plants in total (S15 and S16), 2 strains in Zm cytoplasmic ALT-2-02 maize plants in total (S17 and S18), 2 strains in Zm chloroplastic ALT-2-02 maize plants in total (S19 and S20), 2 strains in Zm cytoplasmic ALT-3-02 maize plants in total (S21 and S22), 2 strains in Zm chloroplastic ALT-3-02 maize plants in total (S23 and S24), and 1 strain in wild- type maize plants (CK2) in total; and 10-15 plants were selected from each strain and tested.
# [3] = system: Zm chloroplastic ALT-3-02 maize plants; assay: as above; conditions: 36 g ai/ha (4x Hal.); for Average damage % 3 DAT: 3 days after spraying; for Average damage % 7 DAT: 7 days after spraying; for Average damage % 14 DAT: 14 days after spraying; for Average damage % 21 DAT: 21 days after spraying
# Source text: as §1, §2
# [4] = system: Zm chloroplastic ALT-1-02 maize plants; assay: as above; conditions: 36 g ai/ha (4x Hal.); for Average damage % 3 DAT: 3 days after spraying; for Average damage % 7 DAT: 7 days after spraying; for Average damage % 14 DAT: 14 days after spraying; for Average damage % 21 DAT: 21 days after spraying
# Source text: as §1, §2
# [5] = system: Zm cytoplasmic ALT-2-02 maize plants; assay: as above; conditions: 36 g ai/ha (4x Hal.); for Average damage % 3 DAT: 3 days after spraying; for Average damage % 7 DAT: 7 days after spraying; for Average damage % 14 DAT: 14 days after spraying; for Average damage % 21 DAT: 21 days after spraying
# Source text: as §1, §2
# [6] = system: Zm cytoplasmic ALT-1-02 maize plants; assay: as above; conditions: 36 g ai/ha (4x Hal.); for Average damage % 3 DAT: 3 days after spraying; for Average damage % 7 DAT: 7 days after spraying; for Average damage % 14 DAT: 14 days after spraying; for Average damage % 21 DAT: 21 days after spraying
# Source text: as §1, §2
# [7] = system: Zm cytoplasmic ALT-3-02 maize plants; assay: as above; conditions: 36 g ai/ha (4x Hal.); for Average damage % 3 DAT: 3 days after spraying; for Average damage % 7 DAT: 7 days after spraying; for Average damage % 14 DAT: 14 days after spraying; for Average damage % 21 DAT: 21 days after spraying
# Source text: as §1, §2
compound,measurement,setting,value
"COC(=O)c1c(Cl)nn(C)c1S(=O)(=O)NC(=O)Nc1nc(OC)cc(OC)n1 [halosulfuron-methyl, 3-chlorine-5-(4,6-dimethoxypyrimidine-2-aminocarbonylaminosulphonyl)-1-methylpyrazole-4-carboxylic acid methyl ester]",tolerance of the plants to the herbicide,[1],high level of halosulfuron-methyl herbicide tolerance
same,Average damage % 3 DAT,[2]; strain S19,0%
same,Average damage % 7 DAT,[2]; strain S19,0%
same,Average damage % 14 DAT,[2]; strain S19,0%
same,Average damage % 21 DAT,[2]; strain S19,0%
same,Average damage % 3 DAT,[2]; strain S20,0%
same,Average damage % 7 DAT,[2]; strain S20,0%
same,Average damage % 14 DAT,[2]; strain S20,0%
same,Average damage % 21 DAT,[2]; strain S20,0%
same,Average damage % 3 DAT,[3]; strain S23,0%
same,Average damage % 7 DAT,[3]; strain S23,0%
same,Average damage % 14 DAT,[3]; strain S23,0%
same,Average damage % 21 DAT,[3]; strain S23,0%
same,Average damage % 3 DAT,[3]; strain S24,0%
same,Average damage % 7 DAT,[3]; strain S24,0%
same,Average damage % 14 DAT,[3]; strain S24,0%
same,Average damage % 21 DAT,[3]; strain S24,0%
same,Average damage % 3 DAT,[4]; strain S15,0%
same,Average damage % 7 DAT,[4]; strain S15,0%
same,Average damage % 14 DAT,[4]; strain S15,0%
same,Average damage % 21 DAT,[4]; strain S15,0%
same,Average damage % 3 DAT,[4]; strain S16,0%
same,Average damage % 7 DAT,[4]; strain S16,0%
same,Average damage % 14 DAT,[4]; strain S16,0%
same,Average damage % 21 DAT,[4]; strain S16,0%
same,Average damage % 3 DAT,[5]; strain S17,0%
same,Average damage % 7 DAT,[5]; strain S17,3%
same,Average damage % 14 DAT,[5]; strain S17,0%
same,Average damage % 21 DAT,[5]; strain S17,0%
same,Average damage % 3 DAT,[5]; strain S18,0%
same,Average damage % 7 DAT,[5]; strain S18,2%
same,Average damage % 14 DAT,[5]; strain S18,0%
same,Average damage % 21 DAT,[5]; strain S18,0%
same,Average damage % 3 DAT,[6]; strain S13,0%
same,Average damage % 7 DAT,[6]; strain S13,2%
same,Average damage % 14 DAT,[6]; strain S13,0%
same,Average damage % 21 DAT,[6]; strain S13,0%
same,Average damage % 3 DAT,[6]; strain S14,0%
same,Average damage % 7 DAT,[6]; strain S14,3%
same,Average damage % 14 DAT,[6]; strain S14,0%
same,Average damage % 21 DAT,[6]; strain S14,0%
same,Average damage % 3 DAT,[7]; strain S21,0%
same,Average damage % 7 DAT,[7]; strain S21,4%
same,Average damage % 14 DAT,[7]; strain S21,0%
same,Average damage % 21 DAT,[7]; strain S21,0%
same,Average damage % 3 DAT,[7]; strain S22,0%
same,Average damage % 7 DAT,[7]; strain S22,5%
same,Average damage % 14 DAT,[7]; strain S22,0%
same,Average damage % 21 DAT,[7]; strain S22,0%

# Reference: patent US20190029257A1, “APPLICATION FOR HERBICIDE-TOLERANT PROTEIN” (BEIJING DABEINONG TECHNOLOGY GROUP CO., LTD., priority 2016, published 2019)
